# Where “and” joins values, the source holds several entries; their conditions need not be identical. Equal entries are not always repeated. After the bases stand the sugars from the 5' end (letter, count) and the backbone: PS all phosphorothioate, else s phosphorothioate and o phosphodiester by linkage. Methylation of C is not given here. e = 2'-O-(2-methoxyethyl) (MOE); k = constrained ethyl (cEt); d = 2'-deoxy (DNA); m = 2'-O-methyl
# Experiments:
# IRF4 = conditions: ASO
# HSD17B13 = conditions: ASO, HepaRG
Sequence,"target mRNA inhibition (IRF4; SK-MEL-28, 4 µM)","target mRNA inhibition (IRF4; MM.1R, 1 µM)",other results
"AAAAATATAACGGTGT (sugars k3 d10 k3, PS)",24%,,
"AAAACTACTATTGTGG (sugars k3 d10 k3, PS)",14%,,
"AAAAGTAACTGACACG (sugars k3 d10 k3, PS)",61%,,
"AAACAGCCCACTGAGT (sugars k3 d10 k3, PS)",11%,,
"AAACGACAAGTGGCGC (sugars k3 d10 k3, PS)",21%,,
"AAACGGCCTGGAGGTG (sugars k3 d10 k3, PS)",,11%,
"AAAGACAAGTGCCCAT (sugars k3 d10 k3, PS)",24%,,
"AAAGAGTGGTACACCT (sugars k3 d10 k3, PS)",,10%,
"AAATATACCAGCTCAA (sugars k3 d10 k3, PS)",25%,,
"AAATATCGCCCATGAG (sugars k3 d10 k3, PS)",39%,,
"AAATCTTCAACAGCAC (sugars k3 d10 k3, PS)",45%,,
"AACAAACAGAGGAGCG (sugars k3 d10 k3, PS)",16%,,
"AACACTTGGAGAAGTC (sugars k3 d10 k3, PS)",43%,,
"AACCAGCACAGTTCTC (sugars k3 d10 k3, PS)",-18%,,
"AACCATGTTCCTGAAG (sugars k3 d10 k3, PS)",41%,,
"AACCATTACTTAGACA (sugars k3 d10 k3, PS)",45%,,
"AACGACAAGTGGCGCA (sugars k3 d10 k3, PS)",,12%,
"AACGACTCCACAGAGC (sugars k3 d10 k3, PS)",,4%,
"AACGGCCTGGAGGTGA (sugars k3 d10 k3, PS)",,1%,
"AACTAGCAGGGCACGC (sugars k3 d10 k3, PS)",,2%,
"AACTATAATTGGCACG (sugars k3 d10 k3, PS)",73% and 59%,,
"AACTCTCCTGTTTTCG (sugars k3 d10 k3, PS)",42%,,
"AACTGAGAGTGCGAGG (sugars k3 d10 k3, PS)",1%,,
"AAGAAACGAGTTGACA (sugars k3 d10 k3, PS)",22%,,
"AAGAAGCAAGTCGGTC (sugars k3 d10 k3, PS)",55%,,

Sequence,"target mRNA inhibition (IRF4; SK-MEL-28, 4 µM)","target mRNA inhibition (IRF4; MM.1R, 1 µM)",other results
"AAGAAGCACTGGCATT (sugars k3 d10 k3, PS)",22%,,
"AAGAGGCGACTGCTGA (sugars k3 d10 k3, PS)",35%,,
"AAGCAAGTGTCTAAAG (sugars k3 d10 k3, PS)",29%,,
"AAGCAGTCATCACTCT (sugars k3 d10 k3, PS)",38%,,
"AAGCAGTGATGTCAGG (sugars kkddddddddddkeke, PS)",,74% and 76% and 56%,"target mRNA inhibition (IRF4; MM.1R, 0.0625 µM): 8%; target mRNA inhibition (IRF4; MM.1R, 0.25 µM): 22%; target mRNA inhibition (IRF4; MM.1R, 4 µM): 87%"
"AAGCAGTGATGTCAGG (sugars kkdddddddddekeke, PS)",,65%,
"AAGCAGTGATGTCAGG (sugars kkdddddddddkekek, PS)",,43% and 44%,
"AAGCATCCTTTCCTAC (sugars k3 d10 k3, PS)",35%,,
"AAGCATTTTATCATCC (sugars k2 d9 e3 k2, PS)",,21%,
"AAGCATTTTATCATCC (sugars k3 d9 k3 e1, PS)",,33%,
"AAGCATTTTATCATCC (sugars kkddddddddddkeke, PS)",,20%,
"AAGCCTAGAGGTGCCT (sugars k3 d10 k3, PS)",,29%,
"AAGCGCACCGCAGGCG (sugars k3 d10 k3, PS)",4%,,
"AAGCTTGATAAAGGCT (sugars e1 k2 d9 k2 e2, PS)",,-1%,
"AAGCTTGATAAAGGCT (sugars k3 d9 k3 e1, PS)",,5%,
"AAGCTTGATAAAGGCT (sugars kkdddddddddekeke, PS)",,38%,
"AAGCTTGATAAAGGCT (sugars kkdddddddddkdkdk, PS)",,-2%,
"AAGCTTGATAAAGGCT (sugars kkdddddddddkekek, PS)",,-19%,
"AAGCTTGATAAAGGCT (sugars kkkddddddddkekek, PS)",,-4%,
"AAGGAGTGCAGGAGAG (sugars k3 d10 k3, PS)",13%,,
"AAGGTCTGAGTTGTAC (sugars k3 d10 k3, PS)",,20%,
"AAGGTTCCTGTCACCT (sugars k3 d10 k3, PS)",-2%,,
"AAGTGGAGGTCTTTGG (sugars k3 d10 k3, PS)",66%,,
"AAGTGTCTAAAGTCCC (sugars k2 d9 e3 k2, PS)",,21% and 46%,
"AAGTGTCTAAAGTCCC (sugars k3 d10 k3, PS)",,50% and 41%,

Sequence,"target mRNA inhibition (IRF4; SK-MEL-28, 4 µM)","target mRNA inhibition (IRF4; MM.1R, 1 µM)",other results
"AAGTGTCTAAAGTCCC (sugars kdddddddddkekeke, PS)",,4% and 5%,
"AAGTTCATGTAAAGTC (sugars kkdddddddddekeke, PS)",,34% and 29%,
"AAGTTCATGTAAAGTC (sugars kkdddddddddkdkdk, PS)",,32% and 34%,
"AAGTTTACACTGGATC (sugars k3 d10 k3, PS)",58%,,
"AATAAGCTCATCTGCC (sugars k3 d10 k3, PS)",36%,,
"AATATAGTTGTCTGGC (sugars k3 d10 k3, PS)",50%,,
"AATCAGATGATGTCTA (sugars k3 d10 k3, PS)",-3%,,
"AATCTGGATGAGCTTA (sugars k3 d10 k3, PS)",,4%,
"AATCTTCTGCTGATCC (sugars k3 d10 k3, PS)",72%,,
"AATGAAGATCCACTAG (sugars k3 d10 k3, PS)",61%,,
"AATGAGGAAGCCGTTC (sugars k3 d10 k3, PS)",47%,,
"AATGAGTCGGTCACTT (sugars k3 d10 k3, PS)",46%,,
"AATGCATAACACGGTG (sugars k3 d10 k3, PS)",49%,,
"AATGTCCACTGTTTTG (sugars k3 d10 k3, PS)",47%,,
"AATGTGTATTACTCTT (sugars kddddddddddkekek, PS)",,24% and 29%,
"AATGTGTATTACTCTT (sugars kkdddddddddkdkdk, PS)",,10% and 15%,
"AATTAAAGAGCGCATT (sugars k3 d10 k3, PS)",17%,,
"AATTCCATAGAGCCAG (sugars k3 d10 k3, PS)",,18%,
"AATTGGCACGAGGAAG (sugars k3 d10 k3, PS)",28%,,
"AATTTCCATTGGAGGA (sugars k3 d10 k3, PS)",33%,,
"AATTTTCACAGTGATC (sugars k3 d10 k3, PS)",34%,,
"ACAAAAGGTTCCCGCG (sugars k3 d10 k3, PS)",3%,,
"ACAAGCAGTGATGTCA (sugars k3 d10 k3, PS)",73%,14%,"target mRNA inhibition (IRF4; MM.1R, 0.0625 µM): -4%; target mRNA inhibition (IRF4; MM.1R, 0.074 µM): 2%; target mRNA inhibition (IRF4; MM.1R, 0.222 µM): 6%; target mRNA inhibition (IRF4; MM.1R, 0.25 µM): 5%; target mRNA inhibition (IRF4; MM.1R, 0.666 µM): 14%; target mRNA inhibition (IRF4; MM.1R, 2 µM): 46%; target mRNA inhibition (IRF4; MM.1R, 4 µM): 52%"
"ACAAGCATAAAAGGTT (sugars k3 d10 k3, PS)",4%,,
"TTGCAGTTATTAGAAG (sugars k3 d9 k3 e1, PS)",,,target mRNA inhibition (HSD17B13; 1 µM): 10%

Sequence,"target mRNA inhibition (IRF4; SK-MEL-28, 4 µM)","target mRNA inhibition (IRF4; MM.1R, 1 µM)",other results
"TTGGAATGCTACTTGA (sugars kkdddddddddkekek, PS)",,,target mRNA inhibition (HSD17B13; 1 µM): 54%
"TTGGTAAGTATTCCAT (sugars k3 d9 k3 e1, PS)",,,target mRNA inhibition (HSD17B13; 1 µM): 28%
"TTGGTTGGAGGCTGTA (sugars k3 d10 k3, PS)",,,target mRNA inhibition (HSD17B13; 1 µM): 60%
"TTGTATGAGGTCTCTC (sugars k3 d10 k3, PS)",,,target mRNA inhibition (HSD17B13; 1 µM): 50%
"TTGTCTAAACATCTCT (sugars k3 d10 k3, PS)",,,target mRNA inhibition (HSD17B13; 1 µM): 60%
"TTGTGTAGTCCTAGGG (sugars k3 d10 k3, PS)",,,target mRNA inhibition (HSD17B13; 1 µM): 64%
"TTGTTAAGCAGATGGC (sugars k3 d10 k3, PS)",,,target mRNA inhibition (HSD17B13; 0.02 µM): 1%; target mRNA inhibition (HSD17B13; 0.078 µM): 1%; target mRNA inhibition (HSD17B13; 0.313 µM): 30%; target mRNA inhibition (HSD17B13; 1 µM): 84%; target mRNA inhibition (HSD17B13; 1.25 µM): 79%; target mRNA inhibition (HSD17B13; 5 µM): 85%
"TTTAAAATAGAGTCGG (sugars kkdddddddddkekek, PS)",,,target mRNA inhibition (HSD17B13; 1 µM): 43%
"TTTAACTTTCCTCCGT (sugars k3 d10 k3, PS)",,,target mRNA inhibition (HSD17B13; 1 µM): 16%
"TTTAATACGACTTCCT (sugars k3 d10 k3, PS)",,,target mRNA inhibition (HSD17B13; 0.02 µM): 0%; target mRNA inhibition (HSD17B13; 0.078 µM): 0%; target mRNA inhibition (HSD17B13; 0.313 µM): 27%; target mRNA inhibition (HSD17B13; 1 µM): 72%; target mRNA inhibition (HSD17B13; 1.25 µM): 68%; target mRNA inhibition (HSD17B13; 5 µM): 83%
"TTTACTCACTTCTGGT (sugars k3 d10 k3, PS)",,,target mRNA inhibition (HSD17B13; 1 µM): 30%
"TTTACTGGGATACTAT (sugars k3 d10 k3, PS)",,,target mRNA inhibition (HSD17B13; 1 µM): 25%
"TTTAGAGAGCGATAGA (sugars k3 d10 k3, PS)",,,target mRNA inhibition (HSD17B13; 1 µM): 13%
"TTTAGCAGCTTGGAAG (sugars k3 d10 k3, PS)",,,target mRNA inhibition (HSD17B13; 1 µM): 43%
"TTTAGGATTAATTCCC (sugars k3 d10 k3, PS)",,,target mRNA inhibition (HSD17B13; 1 µM): 16%
"TTTAGGGCAAACCTTG (sugars k3 d10 k3, PS)",,,target mRNA inhibition (HSD17B13; 1 µM): 67%
"TTTCATAGGGAGACCA (sugars k3 d10 k3, PS)",,,target mRNA inhibition (HSD17B13; 1 µM): 71%
"TTTCTTATGTAATAGC (sugars k3 d9 k3 e1, PS)",,,target mRNA inhibition (HSD17B13; 1 µM): 60%
"TTTCTTATGTAATAGC (sugars kkdddddddddkekek, PS)",,,target mRNA inhibition (HSD17B13; 1 µM): 60%
"TTTCUTATGTAATAGC (sugars k3 d1 m1 d8 k3, PS)",,,target mRNA inhibition (HSD17B13; 1 µM): 50%
"TTTGAACCGTATTCCC (sugars k3 d10 k3, PS)",,,target mRNA inhibition (HSD17B13; 0.02 µM): 36%; target mRNA inhibition (HSD17B13; 0.078 µM): 41%; target mRNA inhibition (HSD17B13; 0.313 µM): 57%; target mRNA inhibition (HSD17B13; 1 µM): 69%; target mRNA inhibition (HSD17B13; 1.25 µM): 79%; target mRNA inhibition (HSD17B13; 5 µM): 85%
"TTTGACTGCTGCTAGT (sugars k3 d10 k3, PS)",,,target mRNA inhibition (HSD17B13; 1 µM): 21%
"TTTGAGCCTAAAATTG (sugars k3 d10 k3, PS)",,,target mRNA inhibition (HSD17B13; 1 µM): 26%
